In this experiment the target is HLA-DRB1*0401 (Homo sapiens, UniProt P01903+P01911, A100K/A169T/F76Y/I96L/K127E/L162R/M171V/N62H/P40V/Q125Y/R42H/S133A/S149N/S66Y/V115G/V209L/W38E). The experiment is described as follows: biochemical. It is filed as binding.

Consider 19 molecules from paper PMC2192565 (The Journal of Experimental Medicine, 1996).

pIC50: −log10 of the molar value. Where no end group is shown, it is not given here.

For the molecule `CC[C@H](C)[C@H](NC(=O)[C@H](CC(N)=O)NC(=O)[C@@H](N)CCC(N)=O)C(=O)N[C@@H](CC(C)C)C(=O)N[C@@H](CC(C)C)C(=O)N[C@@H](CO)C(=O)N[C@@H](CC(N)=O)C(=O)N[C@@H](C)C(=O)N1CCC[C@H]1C(=O)N[C@@H](CC(C)C)C(=O)NCC(=O)N1CCC[C@H]1C(=O)N[C@@H](CCC(N)=O)C(=O)N[C@@H](Cc1ccccc1)C(=O)N1CCC[C@H]1C(=O)O` [Ty 56-70], the pIC50 is 6.65.

DFSYLQDSDPDSFQD [Y449 F] showed a pIC50 of 5.83.

Turning to DQSYLQDSDPDSFQD [Y449 Q], the pIC50 was 6.04.

In turn, DYSFLQDSDPDSFQD [Y451 F] had a pIC50 of 6.25.

In the case of QNFLLSNAPLGPQFP [I58 F], the pIC50 is 7.26.

For QNIFLSNAPLGPQFP [L59 F], the pIC50 is 6.49.

As for QNILFSNAPLGPQFP [L60 F], the pIC50 was 5.96.

With QNILLSNAPQGPQFP [L65 Q], the pIC50 is 5.70.

With QNILLSNAPVGPQFP [L65 V], the negative-log IC50 (pIC50) was 5.82.

On to QNILLSNAQLGPQFP [P64 Q], for which the pIC50 is 6.54.

Take QNILLSNAVLGPQFP [P64 V]: the pIC50 was 6.80.

QNILLSNQPLGPQFP [A63 Q]: the pIC50 was 5.11.

Turning to QNILLSNVPLGPQFP [A63 V], the pIC50 was 7.92.

QNILQSNAPLGPQFP [L60 Q] gave a pIC50 of 6.12.

As for QNILVSNAPLGPQFP [L60 V], the pIC50 is 6.21.

Molecule QNIQLSNAPLGPQFP [L59 Q] showed a pIC50 of 6.12.

QNIVLSNAPLGPQFP [L59 V] showed a pIC50 of 7.02.

QNQLLSNAPLGPQFP [I58 Q] gave a pIC50 of 5.17.

On to QNVLLSNAPLGPQFP [I58 V], for which the pIC50 was 6.02.

For orientation: pIC50 means −log10 of the IC50, conventionally taken in molar units. A lower pIC50 goes with a high IC50.
